Measured values as given in patent US20220331303A1, “USE OF AN OREXIN 2 RECEPTOR AGONIST FOR THE TREATMENT OF EXCESSIVE SLEEPINESS” (Takeda Pharmaceutical Company Limited, priority 2019, published 2022).

Key:
[1] = test system: sleep-deprived healthy volunteers; assay: Safety/tolerability of a single dose in sleep-deprived healthy adults; assay type: in vivo, human; conditions: Modafinil 300 mg; moderate intensity
Procedure: (§1) During the day before dosing on Day 1, participants were administered the KSS at scheduled timepoints. A practice MWT session was performed on Day 1 treatment period 1 (only once during the entire study) to familiarize subjects with the procedures. Study drug was administered in the clinic in the evening on Day 1 of each treatment period. Subjects underwent the MWT and KSS at specified timepoints after the start of the infusion. Subjects were required to stay awake between the MWT tests. Following completion of the IV infusion on Day 2, subjects underwent an additional MWT test. When the final MWT test and cognitive testing were completed, subjects were allowed to sleep (recovery sleep) for approximately 6 hours. PSG recording was collected during this time. Subjects were discharged from the unit after completion on Day 2 with continuing actigraphy upon discharge (to begin on Day −6 before the next treatment period). The interval between each subsequent treatment period was at least 7 days to ensure that the subject's circadian rhythm had returned to a normal cycle. Subject's vital signs, including BP, were monitored during the dosing and testing period. Blood samples for determination of Compound A plasma concentrations were collected at specified timepoints on Days 1 and 2 of each treatment period. Subjects completed the Columbia-Suicide Severity Rating Scale (C-SSRS) during screening, before study drug administration, and before discharge on Day 2 of each treatment period.
Safety endpoints: adverse events (AEs), physical examinations, vital signs, 12-lead electrocardiograms (ECGs), clinical laboratory evaluations (hematology, blood chemistry, and urinalysis), drug-liking visual analogue scale, and Profile of Mood States.

[2] = test system: sleep-deprived healthy volunteers; assay: Polysomnography (PSG) of recovery sleep after sleep deprivation in healthy volunteers; assay type: in vivo, human
Procedure: Exploratory objectives in sleep-deprived healthy volunteers were as follows: • 1. To compare the effects of Compound A (LD and HD) and modafinil (300 mg) on promoting wakefulness as measured by MWT. • 2. To determine PK-PD relationships for selected PD measures. • 3. To evaluate PK-BP relationships in BP change after Compound A administration. • 4. To compare various polysomnography (PSG) parameters between Day −1 (predose) and Day 2 (recovery sleep). • 5. To determine whether there is any difference in the PSG parameters on Day 2 (recovery sleep) between Compound A and placebo or modafinil. • 6. To evaluate the continuous electroencephalogram (EEG) obtained during the MWTs for power spectra changes for Compound A (LD and HD) versus placebo, Compound A (LD and HD) versus modafinil, and modafinil versus placebo.
as §1
The PSGs assess recovery sleep during the day after the end of the sleep deprivation period. There were no corrections for multiple comparisons. […]

[3] = M: Modafinil 300 mg, recovery sleep
[4] = Modafinil 300 mg, recovery sleep

## NC(=O)C[S+]([O-])C(c1ccccc1)c1ccccc1 (centres unmarked) [Modafinil, modafinil, reference compound]
[1]
  Drug-related TEAE of liver function test increased, number of subjects: 1 subject
[2]; M: Modafinil 300 mg
  Stage N3 Duration LS Mean: 51.61 min
  Stage N3 Duration LS Mean Difference vs placebo Estimate: -29.78 min
  Stage REM % LS Mean: 17.46%
  Stage REM % LS Mean Difference vs placebo Estimate: −3.92%
  Stage REM Duration LS Mean: 41.38 min
  Stage REM Duration LS Mean Difference vs placebo Estimate: -25.18 min
  Stage Wake % LS Mean: 23.01%
  Stage Wake % LS Mean Difference vs placebo Estimate: 12.71%
  Stage Wake Duration LS Mean: 60.92 min
  Stage Wake Duration LS Mean Difference vs placebo Estimate: 25.39 min
  Total Arousal Index LS Mean: 14.28
  Total Arousal Index LS Mean Difference vs placebo Estimate: 4.28
  Total Arousal LS Mean: 51.11
  Total Arousal LS Mean Difference vs placebo Estimate: 0.70
  Total Leg Movements LS Mean: 23.91
  Total Leg Movements LS Mean Difference vs placebo Estimate: 4.97
  Total Leg Movements N1 LS Mean: 2.19
  Total Leg Movements N1 LS Mean Difference vs placebo Estimate: 0.93
  Total Leg Movements N2 LS Mean: 10.10
  Total Leg Movements N2 LS Mean Difference vs placebo Estimate: 1.56
  Total Leg Movements N3 LS Mean: 2.61
  Total Leg Movements N3 LS Mean Difference vs placebo Estimate: 0.99
  Total Leg Movements REM LS Mean: 5.75
  Total Leg Movements REM LS Mean Difference vs placebo Estimate: 0.00
  Total Leg Movements with Awakening LS Mean: 3.14
  Total Leg Movements with Awakening LS Mean Difference vs placebo Estimate: 1.39
  Total Leg Movements with Microarous LS Mean: 3.44
  Total Leg Movements with Microarous LS Mean Difference vs placebo Estimate: 1.43
  Total Leg Movements with Resp Event LS Mean: 0.04
  Total Leg Movements with Resp Event LS Mean Difference vs placebo Estimate: −0.01
  Total Leg Movements without Arousal LS Mean: 20.42
  Total Leg Movements without Arousal LS Mean Difference vs placebo Estimate: 3.50
  Total Recording Time LS Mean: 321.98 min
  Total Recording Time LS Mean Difference vs placebo Estimate: -34.92 min
  Total Sleep Time LS Mean: 224.54 min
  Total Sleep Time LS Mean Difference vs Placebo Estimate: -84.93 min
  Wake After Persistent Sleep LS Mean: 47.63 min
  Wake After Persistent Sleep LS Mean Difference vs placebo Estimate: 13.00 min
  Wake After Sleep Onset LS Mean: 60.92 min
  Wake After Sleep Onset LS Mean Difference vs placebo Estimate: 25.39 min
[2]; [3]
  PSG Awakenings LS Mean: 5.38
  PSG Awakenings LS Mean Difference vs Placebo Estimate: 0.89
  PSG N1 Latency LS Mean: 6.07 min
  PSG N1 Latency LS Mean Difference vs Placebo Estimate: 0.71 min
  PSG N2 Latency LS Mean: 8.62 min
  PSG N2 Latency LS Mean Difference vs Placebo Estimate: 1.98 min
  PSG N3 Latency LS Mean: 38.00 min
  PSG N3 Latency LS Mean Difference vs Placebo Estimate: 10.73 min
  PSG Per. Slp LS Mean: 26.19 min
  PSG Per. Slp LS Mean Difference vs Placebo Estimate: 19.32 min
  PSG REM Latency LS Mean: 71.67 min
  PSG REM Latency LS Mean Difference vs Placebo Estimate: 16.73 min
  PSG Sleep Efficiency LS Mean: 68.28%
  PSG Sleep Efficiency LS Mean Difference vs Placebo Estimate: −18.44%
  PSG Sleep Onset LS Mean: 5.99 min
  PSG Sleep Onset LS Mean Difference vs Placebo Estimate: 2.00 min
  PSG Spontaneous Arousal Index LS Mean: 11.91
  PSG Spontaneous Arousal Index LS Mean Difference vs Placebo Estimate: 2.98
  PSG Spontaneous Arousal LS Mean: 42.14
  PSG Spontaneous Arousal LS Mean Difference vs Placebo Estimate: −2.93
  PSG Stage N1 % LS Mean: 10.14%
  PSG Stage N1 % LS Mean Difference vs Placebo Estimate: 4.05%
  PSG Stage N1 Duration LS Mean: 19.12 min
  PSG Stage N1 Duration LS Mean Difference vs Placebo Estimate: 0.72 min
  PSG Stage N2 % LS Mean: 50.94%
  PSG Stage N2 % LS Mean Difference vs Placebo Estimate: 4.24%
  PSG Stage N2 Duration LS Mean: 111.09 min
  PSG Stage N2 Duration LS Mean Difference vs Placebo Estimate: -32.99 min
  PSG Stage N3 % LS Mean: 21.61%
  PSG Stage N3 % LS Mean Difference vs Placebo Estimate: −4.22%
[2]; [4]
  PSG sleep efficiency, LS mean difference vs placebo: −18.44%
  PSG spontaneous arousal index, LS mean difference vs placebo: 2.98
  PSG stage N1 %, LS mean difference vs placebo: 4.05%
  PSG stage N2 duration, LS mean difference vs placebo: -32.99 min
  PSG stage N3 %, LS mean difference vs placebo: −4.22%
  PSG stage N3 duration, LS mean difference vs placebo: −29.78
  PSG stage REM %, LS mean difference vs placebo: −3.92%
  PSG stage REM duration, LS mean difference vs placebo: -25.18 min
  PSG stage wake %, LS mean difference vs placebo: 12.71%
  PSG stage wake duration, LS mean difference vs placebo: 25.39 min
  PSG time to per. slp (persistent sleep), LS mean difference vs placebo: 19.32 min
  PSG total arousal index, LS mean difference vs placebo: 4.28
  PSG total recording time, LS mean difference vs placebo: -34.92 min
  PSG total sleep time, LS mean difference vs placebo: -84.93 min
  PSG wake after sleep onset, LS mean difference vs placebo: 25.39 min
